Measured values reported in the NIST ThermoML archive (doi:10.1021/je030236t).
± gives the expanded uncertainty stated by the source.

Columns and labels:
[1] = molar enthalpy of vaporization or sublimation; details: 298.15 K; Liquid
[2] = Liquid

CCCCCCCCCCCCCCCCCCCCCCCCCCCCCCCCC [tritriacontane]
Details | molar enthalpy [kcal/mol]
[1] | 40.1 ± 2.06

[2]
Details | vapor or sublimation pressure [kPa]
298.15 K | 1.19e-12 ± 2.4e-13
310 K | 1.54e-11 ± 3.1e-12
320 K | 1.11e-10 ± 2.2e-11
330 K | 6.95e-10 ± 1.4e-10
340 K | 3.79e-09 ± 7.6e-10
350 K | 1.82e-08 ± 3.6e-09
360 K | 7.83e-08 ± 1.6e-08
370 K | 3.04e-07 ± 6.1e-08
380 K | 1.07e-06 ± 2.1e-07
390 K | 3.49e-06 ± 7e-07
400 K | 1.05e-05 ± 2.1e-06
410 K | 2.92e-05 ± 5.8e-06
420 K | 7.65e-05 ± 1.5e-05
430 K | 0.000189 ± 3.8e-05
440 K | 0.000439 ± 8.8e-05
450 K | 0.000972 ± 0.00019
460 K | 0.00205 ± 0.00041
470 K | 0.00415 ± 0.00083
480 K | 0.00805 ± 0.0016
490 K | 0.015 ± 0.003
500 K | 0.0272 ± 0.0054
510 K | 0.0474 ± 0.0095
520 K | 0.0804 ± 0.016
530 K | 0.133 ± 0.027
540 K | 0.213 ± 0.043
550 K | 0.334 ± 0.067
560 K | 0.511 ± 0.1
570 K | 0.767 ± 0.15
580 K | 1.13 ± 0.23

CCCCCCCCCCCCCCCCCCCCCCCCCCCCCCCCCCC [pentatriacontane]
Details | molar enthalpy [kcal/mol]
[1] | 42.5 ± 2.2

[2]
Details | vapor or sublimation pressure [kPa]
298.15 K | 1.22e-13 ± 3.7e-14
310 K | 1.86e-12 ± 5.6e-13
320 K | 1.53e-11 ± 4.6e-12
330 K | 1.07e-10 ± 3.2e-11
340 K | 6.52e-10 ± 2e-10
350 K | 3.46e-09 ± 1e-09
360 K | 1.63e-08 ± 4.9e-09
370 K | 6.91e-08 ± 2.1e-08
380 K | 2.64e-07 ± 7.9e-08
390 K | 9.25e-07 ± 2.8e-07
400 K | 2.97e-06 ± 8.9e-07
410 K | 8.87e-06 ± 2.7e-06
420 K | 2.46e-05 ± 7.4e-06
430 K | 6.42e-05 ± 1.9e-05
440 K | 0.000158 ± 4.7e-05
450 K | 0.000367 ± 0.00011
460 K | 0.000812 ± 0.00024
470 K | 0.00171 ± 0.00051
480 K | 0.00346 ± 0.001
490 K | 0.00673 ± 0.002
500 K | 0.0126 ± 0.0038
510 K | 0.0228 ± 0.0068
520 K | 0.0399 ± 0.012
530 K | 0.0678 ± 0.02
540 K | 0.112 ± 0.034
550 K | 0.181 ± 0.054
560 K | 0.284 ± 0.085
570 K | 0.436 ± 0.13
580 K | 0.657 ± 0.2

CCCCCCCCCCCCCCCCCCCCCCCCCCCCCCCCCCCC [hexatriacontane]
Details | molar enthalpy [kcal/mol]
[1] | 43.7 ± 2.25

[2]
Details | vapor or sublimation pressure [kPa]
298.15 K | 4.51e-14 ± 1.4e-14
310 K | 7.39e-13 ± 2.2e-13
320 K | 6.41e-12 ± 1.9e-12
330 K | 4.72e-11 ± 1.4e-11
340 K | 3e-10 ± 9e-11
350 K | 1.66e-09 ± 5e-10
360 K | 8.16e-09 ± 2.5e-09
370 K | 3.58e-08 ± 1.1e-08
380 K | 1.42e-07 ± 4.3e-08
390 K | 5.12e-07 ± 1.5e-07
400 K | 1.7e-06 ± 5.1e-07
410 K | 5.2e-06 ± 1.6e-06
420 K | 1.48e-05 ± 4.4e-06
430 K | 3.96e-05 ± 1.2e-05
440 K | 9.96e-05 ± 3e-05
450 K | 0.000237 ± 7.1e-05
460 K | 0.000534 ± 0.00016
470 K | 0.00115 ± 0.00035
480 K | 0.00236 ± 0.00071
490 K | 0.00467 ± 0.0014
500 K | 0.00888 ± 0.0027
510 K | 0.0163 ± 0.0049
520 K | 0.0289 ± 0.0087
530 K | 0.0498 ± 0.015
540 K | 0.0834 ± 0.025
550 K | 0.136 ± 0.041
560 K | 0.216 ± 0.065
570 K | 0.336 ± 0.1
580 K | 0.51 ± 0.15

CCCCCCCCCCCCCCCCCCCCCCCCCCCCCCCCCCCCCC [octatriacontane]
Details | molar enthalpy [kcal/mol]
[1] | 46 ± 2.34

[2]
Details | vapor or sublimation pressure [kPa]
298.15 K | 5.13e-15 ± 1.5e-15
310 K | 9.81e-14 ± 2.9e-14
320 K | 9.59e-13 ± 2.9e-13
330 K | 7.88e-12 ± 2.4e-12
340 K | 5.54e-11 ± 1.7e-11
350 K | 3.38e-10 ± 1e-10
360 K | 1.81e-09 ± 5.4e-10
370 K | 8.6e-09 ± 2.6e-09
380 K | 3.67e-08 ± 1.1e-08
390 K | 1.42e-07 ± 4.3e-08
400 K | 5.03e-07 ± 1.5e-07
410 K | 1.64e-06 ± 4.9e-07
420 K | 4.95e-06 ± 1.5e-06
430 K | 1.39e-05 ± 4.2e-06
440 K | 3.68e-05 ± 1.1e-05
450 K | 9.16e-05 ± 2.8e-05
460 K | 0.000216 ± 6.5e-05
470 K | 0.000484 ± 0.00015
480 K | 0.00104 ± 0.00031
490 K | 0.00212 ± 0.00064
500 K | 0.00417 ± 0.0013
510 K | 0.00791 ± 0.0024
520 K | 0.0145 ± 0.0044
530 K | 0.0257 ± 0.0077
540 K | 0.0441 ± 0.013
550 K | 0.0738 ± 0.022
560 K | 0.12 ± 0.036
570 K | 0.191 ± 0.057
580 K | 0.296 ± 0.089
